Assay results taken from patent EP4818189A1, “NITROGEN-CONTAINING HETEROCYCLIC COMPOUND, AND PREPARATION METHOD AND USE THEREFOR” (Chengdu Di'ao Pharmaceutical Group Co., Ltd., priority 2023, dated 2025).
Where a SMILES comes first, the peptide text is derived from it. [ ]: non-standard residue; d: D form. The star is where a group is joined. pGlu = O=C1CC[C@@H](C(=O)O)N1; Aze = O=C(O)[C@@H]1CCN1; dAze = O=C(O)[C@H]1CCN1; Bz = O=C(c1ccccc1)*

Key:
CUMS model mice [1] = test: Tail suspension test in CUMS model mice, intravenous administration; type: in vivo, C57/B6 mice; conditions: single i.v. dose 100 mg/kg, test 2 hours later (FIG. 4)
From the text: (§1) 6-8-week-old C57/B6 mice (purchased from: Jinan Pengyue Laboratory Animal Breeding Co., Ltd.) were used to establish a 28-day chronic unpredictable mild stress (CUMS) animal model, and an experimental procedure referred to document description^[1,2]. After one week of acclimatization, seven experiments, including food and water deprivation, foot shock, wet bedding, cage tilting, restraint stress, shaker stress, and olfactory stimulation, were randomly applied to the animals within one week to achieve unpredictability, and the stimulation was continued for 4 consecutive weeks. The successful establishment of the model was verified by an open field test (OFT)^[3], and then pharmacodynamic evaluation was carried out. The animals were divided into a blank control group (Control), a model group (Model), a vehicle control group (Vehicle), a fluoxetine control group and a compound group in the experiment. The test compound was intravenously (i.v.) administered once at a dose of 100 mg/kg, a tail suspension test (TST) and a forced swimming test (FST)^[4,5] were carried out 2 hours later to evaluate the depression of the mice, and prolonged immobility time in the TST and the FST indicated behavioral despair of the mice. After summary statistics of data, SPSS data statistics software was used for analysis, and Graph Pad software was used for graph generation based on SPSS analysis results.

[2] = Mouse pharmacokinetic detection; type: in vivo; conditions: CD1 mice
Protocol: The detection was carried out in 6-8-week-old CD1 mice (purchased from: Speifu (Beijing) Biotechnology Co., Ltd.). […] The concentration of the compound in a plasma sample was analyzed by LC-MS/MS. Pharmacokinetic calculation was carried out by using WinNonlin (Phoenix™, Version 8.3) or other similar software. The following pharmacokinetic parameters were calculated based on plasma concentration and time data: Oral administration: AUClast, bioavailability (F). Statistical calculation was carried out on the above parameter data. Table 3 Pharmacokinetic data of some compounds administered orally in mice

CUMS model mice [3] = test: Forced swimming test in CUMS model mice, intravenous administration; type: in vivo, C57/B6 mice; conditions: single i.v. dose 100 mg/kg, test 2 hours later (FIG. 3)
From the text: as §1

[4] = Plasma stability determination; type: in vitro ADME; conditions: mouse
Protocol: Mouse plasma (purchased from IPHASE, Batch No. 23B007) was thawed in a 37°C water bath, centrifuged to remove an upper clot, and the pH value was recorded as 7-8. An appropriate volume of stock solution of test compound in acetonitrile (at a concentration of 10 mM) was diluted with acetonitrile to 1 mM, so as to serve as a test drug solution. An appropriate volume of test drug solution was added to a corresponding volume of plasma and mixed uniformly, such that the concentration of the test compound in the incubation system was 5 µM, and the content of the organic solvent acetonitrile was 0.5%. 50 µL of mixed plasma was transferred into a 96-well plate (N=2), incubated at 37°C in a water bath for a designated time, and then added with 300 µL of internal standard-containing methanol solution to terminate the reaction. The reaction mixture was vortexed and centrifuged, and the supernatant was subjected to LC-MS/MS analysis. Propantheline and ZZL-7 were used as positive controls, and processed and tested under the same conditions as the test compound. A curve was plotted with the remaining percentage of the compound against incubation time to obtain a k value, and the half-life of each compound was calculated.

[5] = Permeability detection in MDR1-MDCK II cell monolayer; type: in vitro ADME; conditions: dog, pH 7.4, MDR1-MDCK II cells, 2 µM, 2.5 hours; for Papp A→B at 2.5 h, 2 µM: apical to basolateral; for Papp B→A at 2.5 h, 2 µM: basolateral to apical
Protocol: (§2) MDR1-MDCK II cells (imported from the Netherlands Cancer Institute) were seeded in a 96-well cell plate at a density of 3.33×10^5 cells/mL, and cultured in a carbon dioxide incubator for 4-7 days to form a cell monolayer. A Hank's balanced salt solution (HBSS, pH 7.40 ± 0.05) containing 10.0 mM 4-(2-hydroxyethyl)-1-piperazineethanesulfonic acid (HEPES) was used as a transport buffer. A DMSO stock solution of compound was diluted to 2 µM (DMSO < 1.0%) with the transport buffer, and added to the basolateral (B) side and apical (A) side respectively (N=2). The bidirectional (A-B and B-A) incubation concentration of Digoxin, a P-gp substrate, was 10 µM, and the unidirectional (A-B) incubateion concentrations of Nadolol, a low-permeability control, and Metoprolol, a high-permeability control, were 2 µM. The cell plate was incubated in a 5% CO2 cell incubator at 37°C and saturated humidity for 2.5 hours, then final samples from a receiver side and a donor side were collected, added with the transport buffer and a precipitant at an appropriate ratio, and analyzed by LC-MS/MS, and an apparent permeability coefficient, an efflux ratio and a solution recovery were calculated.
(§3) After the transport experiment was completed, an integrity of the MDR1-MDCK II cell layer was detected by a lucifer yellow detection experiment. Residual solution in apical and basolateral wells was removed, and 75 µL of transport buffer containing 100 µM lucifer yellow was added to the apical wells and 250 µL of transport buffer was added to the basolateral wells respectively. The cell plate was incubated in a 5% CO2 cell incubator at 37 °C and saturated humidity for 30 minutes, then 20 µL of sample was taken from the apical side and mixed with 60 µL of transport buffer and 80 µL of sample was taken from the basolateral side. A relative fluorescence intensity was detected by a microplate reader at excitation/emission wavelengths of 425/528 nm, and the permeability of Lucifer Yellow was calculated.
(§4) The apparent permeability coefficient (Papp), efflux ratio (ER) and %solution recovery were respectively calculated by following formulas: Papp = (VR)/(Area × Time) × ([drug]receiver)/([drug]initial,donor) = (VR)/(Area × Time) × (CR)/(C0) [formula] Efflux Ratio = (Papp (B−A))/(Papp (A−B)) [formula] %Solution Recovery = (CR × VR + CD × VD)/(C0 × VD) × 100 [formula]
(§5) VR was the volume of solution in the receiver side (0.075 mL for the apical side and 0.25 mL for the basolateral side respectively), VD was the volume of solution in the donor side (0.075 mL for the apical side and 0.25 mL for the basolateral side respectively), CR was the peak area ratio of compound in the receiver side, CD was the peak area ratio of compound in the donor side, C0 was the initial peak area ratio of compound in the donor side, Area was the surface area (0.143 cm^2) of the cell monolayer, and Time was incubation time of 9000 seconds (150 minutes). Papp(B-A) and Papp(A-B) respectively referred to the apparent permeability coefficient from the basolateral side to the apical side and the apparent permeability coefficient from the apical side to the basolateral side.
(§6) The permeability of Lucifer Yellow(%Lucifer Yellow) was calculated by the following formula: %Lucifer Yellow = (VBasolateral × RFUBasolateral)/(VApical × RFUApical + VBasolateral × RFUBasolateral) × 100 [formula]
(§7) RFUApical and RFUBasolareral respectively referred to relative fluorescence intensities of lucifer yellow in the apical side and the basolateral side. VApical and VBasolateral respectively referred to loading volumes (0.075 mL and 0.25 mL respectively) in the apical side and the basolateral side. Table 2 Permeability data of some compounds

MDR1-MDCK II cells = test: as above; type: in vitro ADME; conditions: permeability rank
Protocol: as §2, §3, §4, §5, §6, §7

[6] = Rat pharmacokinetic detection; type: in vivo; conditions: plasma, male SD rats; for AUC(0-t): oral gavage 15 mg/kg; for bioavailability: oral gavage 15 mg/kg vs intravenous 10 mg/kg
Protocol: The detection was carried out in 6-8-week-old male SD rats (purchased from:SPF (Beijing) Biotechnology Co., Ltd.). A test compound was dissolved in a solution containing 10% DMSO, 15% Solutol HS and 75% (aqueous solution of 10% hydroxypropyl-β-cyclodextrin), and administered via intravenous injection (10 mg/kg) or oral gavage (15 mg/kg). A concentration of the compound in a plasma sample was analyzed by LC-MS/MS. Pharmacokinetic calculation was carried out by using WinNonlin (Phoenix™, Version 8.3). The following pharmacokinetic parameters were calculated based on plasma concentration and time data: Oral administration: AUClast, bioavailability (F). Statistical calculation was carried out on the above parameter data. Table 4 Pharmacokinetic data of some compounds administered orally in rats

[7] = plasma, oral gavage 10 mg/kg vs intravenous 10 mg/kg
[8] = plasma, ZZL-7 administered at 100 mg/kg via PO

SMILES	AUC(0-t) ([2]; plasma, oral gavage 10 mg/kg) [ng·h/mL]	bioavailability [2, 7] [%]	half-life at 5 µM [4] [h]	further results
COC(=O)[C@@H](NC(=O)c1cnc(C)[nH]1)C(C)C [A-1-1]	629	35.3		immobility time in the tail suspension test (CUMS model mice [1]): rapidly reverse the prolonged immobility time; immobility time in the forced swimming test (CUMS model mice [3]): rapidly reverse the prolonged immobility time
COC(=O)[C@@H](NC(=O)C1CCN1C(=O)C1CC1)C(C)C (stereo partly drawn) [A-2-2]	405	21.5		
[2H]C([2H])([2H])OC(=O)[C@@H](NC(=O)C1CCN1C(C)=O)C(C)C (stereo partly drawn) [A-2-4]	3770	80.2		
COC(=O)[C@@H](NC(=O)[C@@H]1CCN1C(C)=O)C(C)C [A-2-6] (Ac-[Aze]-Val-OMe)	3340	148		
COC(=O)[C@@H](NC(=O)[C@H]1CCN1C(C)=O)C(C)C [A-2-7] (Ac-[dAze]-Val-OMe)	3990	83.9		
[2H]C([2H])([2H])C(=O)N1CC[C@H]1C(=O)N[C@H](C(=O)OC)C(C)C [A-2-8]	3310	88.5		
[2H]C([2H])([2H])C(=O)N1CC[C@@H]1C(=O)N[C@H](C(=O)OC)C(C)C [A-2-9]	5250	84.7		
COC(=O)[C@@H](NC(=O)[C@@H]1CCN1C(=O)C1CC1)C(C)C [A-2-21]			> 4.82	
COC(=O)[C@@H](NC(=O)[C@H]1CCN1C(=O)c1ccccc1)C(C)C [A-2-22] (Bz-[dAze]-Val-OMe)			> 4.82	
COC(=O)[C@@H](NC(=O)[C@@H]1CCN1C(=O)c1ccccc1)C(C)C [A-2-23] (Bz-[Aze]-Val-OMe)			> 4.82	
COC(=O)[C@@H](NC(=O)[C@H]1CCN1C(=O)c1ccc(C(F)(F)F)cc1)C(C)C [A-2-24]			> 4.82	
COC(=O)[C@@H](NC(=O)[C@@H]1CCN1C(=O)c1ccc(C(F)(F)F)cc1)C(C)C [A-2-25]			3.24	
CC(=O)N1CCC1C(=O)N[C@H](c1ncc[nH]1)C(C)C (stereo partly drawn) [B-2-1]	1660	44.9		
[2H]C([2H])([2H])C(=O)N1CC[C@H]1C(=O)N[C@H](c1ncco1)C(C)C [B-2-2]				AUC(0-t) ([2]; in vivo, oral gavage 10 mg/kg): 6950 ng·h/mL; bioavailability ([2]; in vivo, oral gavage 10 mg/kg vs intravenous 10 mg/kg): 153%
CC(=O)N1CC[C@@H]1C(=O)N[C@@H](c1ccccn1)C(C)C [B-2-8]	2550	72.5	> 4.82	
CC(=O)N1CC[C@@H]1C(=O)NC(c1cc2ccccc2[nH]1)C(C)C (stereo partly drawn) [B-2-33]	3360	68.3	> 4.82	
CC(C)C[C@H](NC(=O)[C@@H]1CCC(=O)N1)C(=O)O [D4-pEL, reference compound] ([pGlu]-Leu-OH)	555	7.7		Papp A→B at 2.5 h, 2 µM [5]: < 0.216 ×10⁻⁶ cm/s; Papp B→A at 2.5 h, 2 µM [5]: 0.302 ×10⁻⁶ cm/s; Rank Papp (MDR1-MDCK II cells): Low; AUC(0-t) [6]: 98.6 ng·h/mL; bioavailability [6]: 1.04%
C[C@H](NC(=O)[C@@H]1CCCN1)C(=O)O [D5-PA, reference compound] (H-Pro-Ala-OH)	38	3.8	0.877	Papp A→B at 2.5 h, 2 µM [5]: 0.15 ×10⁻⁶ cm/s; Papp B→A at 2.5 h, 2 µM [5]: 0.3 ×10⁻⁶ cm/s; Rank Papp (MDR1-MDCK II cells): Low; AUC(0-t) [6]: 11.5 ng·h/mL; bioavailability [6]: 0.71%

More lines, main results first:

AUC(0-t) ([2]; plasma, oral gavage 10 mg/kg) [ng·h/mL]	bioavailability [2, 7] [%]	half-life at 5 µM [4] [h]	SMILES	further results
		3.83	COC(=O)[C@@H](NC(=O)[C@H]1CCN1C(=O)c1ccc(F)cc1)C(C)C [A-2-26]	
		4.75	COC(=O)[C@@H](NC(=O)[C@@H]1CCN1C(=O)c1ccc(F)cc1)C(C)C [A-2-27]	
		3.78	COC(=O)[C@@H](NC(=O)[C@@H]1CCN1C(=O)c1ccc(Cl)cc1)C(C)C [A-2-29]	
		> 4.82	COC(=O)[C@@H](NC(=O)[C@@H]1CCN1C(=O)c1ccco1)C(C)C [A-2-31]	
		> 4.82	COC(=O)[C@@H](NC(=O)[C@@H]1CCN1C(=O)c1cccs1)C(C)C [A-2-33]	
		> 4.82	COc1ccc(C(NC(=O)[C@H]2CCN2C(C)=O)C(C)C)cc1 (stereo partly drawn) [B-2-24]	
		> 4.82	[2H]C([2H])([2H])C(=O)N1CC[C@H]1C(=O)N[C@@H](c1ncco1)C(C)C [B-2-42]	
		0.417	CC(C)[N+](C)(CCOC(=O)C1c2ccccc2Oc2ccccc21)C(C)C [Propantheline, reference compound]	
		0.421	COC(=O)[C@@H](NC(=O)[C@H](C)NC(C)=O)C(C)C [ZZL-7, acetyl-L-alanyl-L-valine methyl ester, reference compound] (Ac-Ala-Val-OMe)	AUC(0-t) [2, 8]: 138 ng·h/mL; bioavailability [2, 8]: 7.5%
